Measurements from patent publication US20160220602A1, “USE OF CHINESE MEDICINE PREPARATION IN PREPARING DRUG FOR PREVENTING AND/OR TREATING CROHN'S DISEASE” (TASLY PHARMACEUTICAL GROUP CO., LTD., priority 2013, published 2016).

What was measured:
Type in all cases: in vivo, SD rats
[1] = tested on: IL-4; experiment: Serum IL-4 by ELISA, OXZ model rats; conditions: 100 mg/kg once per day, 11 days
Experimental: (§1) Grouping: the experiment was carried out by using two ways of intracolonic and intragastric administration. […] There were 10 rats each group. Method for establishing rat model: referring to the Heller method, OXZ was used to induce the SD rat Crohn's disease model (abbreviated as “OXZ model”). Neck and back skin of rats were shaved (2 cm×2 cm). Ethanol was used to prepare 5% (w/v) OXZ solution, and 0.3 ml resultant OXZ solution was dripped on the skin of rats. After the solution was air-dried naturally, skin allergy occurred in rats. The sensitized rats were adaptively raised for 5 days, […] anesthetized by intraperitoneal injection of pentobarbital sodium. […] After completion, the rats were inverted by lifting tails for 60s to make the solution totally absorbed. […] If the rats manifested dark hair color, body weight loss, poor appetite, lassitude, watery stool or diarrhea, the model establishment was success. Administration method: after successful model establishment by OXZ, the drug was given to rats. The TCM preparation k saline solutions at corresponding dose were administered to the groups of preparation k of all doses and the […] saline solution, a positive drug, administrated to the positive control group. […] Serum IFN-γ, IL-4, and Gln in intestinal mucosa were determined by ELISA in rats.

[2] = tested on: IFN-γ; experiment: Serum IFN-γ by ELISA, TNBS model rats; conditions: 100 mg/kg once per day, 21 days
Experimental: (§2) Grouping: experiment was carried out by using two ways of intracolonic and intragastric administrations. […] There were 10 rats each group. Method for establishing rat model: referring to Morris method, TNBS was used to induce the SD rat Crohn's disease model (abbreviated as “TNBS model”). 24 hours before modeling, the SD rats were fasted but water was given. […] The rats of blank control group were normally fed with free access to water and the same volume of normal saline was given in the same administration routes by referring to the dosage regime of aforementioned treatment groups. The rats of model group were administrated with the same volume of normal saline in the same administration routes. […] (2) Serum indices: after final administration, the testing rats were fasted but given water. 24 hours later, blood was gained from abdominal aorta. Serum IFN-γ, IL-1, IL-4, IL-10 and Gln in intestinal mucosa were determined by enzyme-linked immunosorbent assay (ELISA) in rats.

[3] = tested on: IL-1; experiment: Serum IL-1 by ELISA, TNBS model rats; conditions: 100 mg/kg once per day, 21 days
Experimental: as §2

[4] = tested on: IFN-γ; experiment: Serum IFN-γ by ELISA, OXZ model rats; conditions: 100 mg/kg once per day, 11 days
Experimental: as §1

[5] = tested on: TNBS-induced SD rat Crohn's disease model; experiment: DAI score in TNBS-caused Crohn's disease rat model; conditions: TNBS model rats, 100 mg/kg
Experimental: Grouping: experiment was carried out by using two ways of intracolonic and intragastric administrations. […] There were 10 rats each group. Method for establishing rat model: referring to Morris method, TNBS was used to induce the SD rat Crohn's disease model (abbreviated as “TNBS model”). 24 hours before modeling, the SD rats were fasted but water was given. […] The rats of blank control group were normally fed with free access to water and the same volume of normal saline was given in the same administration routes by referring to the dosage regime of aforementioned treatment groups. The rats of model group were administrated with the same volume of normal saline in the same administration routes. […] (1) General Indices: weight change and stool (e.g. fecal occult blood, bloody stool and diarrhea) was observed every day to calculate DAI (disease activity index) score. DAI score=(weight loss percentage+stool character fraction+hematochezia fraction)/3 [table]

[6] = tested on: Gln in intestinal mucosa; experiment: Gln in intestinal mucosa by ELISA, OXZ model rats; conditions: 100 mg/kg once per day, 11 days
Experimental: as §1

[7] = tested on: IL-10; experiment: Serum IL-10 by ELISA, TNBS model rats; conditions: 100 mg/kg once per day, 21 days
Experimental: as §2

## Nc1ccc(O)c(C(=O)O)c1 [mesalamine, Mesalamine]
[1]; intracolonic
  IL-4 serum content (Mean ± SD): 86.63 ± 11.20 pg/mL
[1]; intragastric
  IL-4 serum content (Mean ± SD): 86.86 ± 7.84 pg/mL
[2]; intracolonic
  IFN-γ serum content (Mean ± SD): 84.51 ± 19.65 pg/mL
[2]; intragastric
  IFN-γ serum content (Mean ± SD): 93.88 ± 23.67 pg/mL
[3]; intracolonic
  IL-1 serum content (Mean ± SD): 167.66 ± 26.95 pg/mL
[3]; intragastric
  IL-1 serum content (Mean ± SD): 154.59 ± 39.98 pg/mL
[4]; intracolonic
  IFN-γ serum content (Mean ± SD): 85.85 ± 10.66 pg/mL
[4]; intragastric
  IFN-γ serum content (Mean ± SD): 81.88 ± 18.00 pg/mL
[5]; intracolonic, 0th day (1 day before model established)
  DAI score (Mean ± SD): 0.000 ± 0.000
[5]; intracolonic, 2nd day
  DAI score (Mean ± SD): 1.867 ± 0.571
[5]; intracolonic, 3rd day
  DAI score (Mean ± SD): 2.100 ± 0.754
[5]; intracolonic, 4th day
  DAI score (Mean ± SD): 2.067 ± 0.7217
[5]; intracolonic, 5th day
  DAI score (Mean ± SD): 1.733 ± 0.562
[5]; intracolonic, 6th day
  DAI score (Mean ± SD): 1.367 ± 0.532
[5]; intracolonic, 7th day
  DAI score (Mean ± SD): 1.267 ± 0.467
[5]; intracolonic, 8th day
  DAI score (Mean ± SD): 1.167 ± 0.360
[5]; intracolonic, 9th day
  DAI score (Mean ± SD): 1.067 ± 0.306
[5]; intracolonic, 10th day
  DAI score (Mean ± SD): 1.000 ± 0.314
[5]; intracolonic, 11th day
  DAI score (Mean ± SD): 0.933 ± 0.211
[5]; intracolonic, 12th day
  DAI score (Mean ± SD): 0.833 ± 0.236
[5]; intracolonic, 13th day
  DAI score (Mean ± SD): 0.833 ± 0.236
[5]; intracolonic, 14th day
  DAI score (Mean ± SD): 0.767 ± 0.353
[5]; intracolonic, 15th day
  DAI score (Mean ± SD): 0.733 ± 0.344
[5]; intragastric, 0th day (1 day before model established)
  DAI score (Mean ± SD): 0.000 ± 0.000
[5]; intragastric, 2nd day
  DAI score (Mean ± SD): 1.519 ± 0.412
[5]; intragastric, 3rd day
  DAI score (Mean ± SD): 1.481 ± 0.380
[5]; intragastric, 4th day
  DAI score (Mean ± SD): 1.333 ± 0.333
[5]; intragastric, 5th day
  DAI score (Mean ± SD): 1.111 ± 0.333
[5]; intragastric, 6th day
  DAI score (Mean ± SD): 1.037 ± 0.261
[5]; intragastric, 7th day
  DAI score (Mean ± SD): 1.000 ± 0.236
[5]; intragastric, 8th day
  DAI score (Mean ± SD): 0.963 ± 0.309
[5]; intragastric, 9th day
  DAI score (Mean ± SD): 0.889 ± 0.289
[5]; intragastric, 10th day
  DAI score (Mean ± SD): 0.741 ± 0.324
[5]; intragastric, 15th day
  DAI score (Mean ± SD): 0.481 ± 0.242
[5]; intragastric, 16th day
  DAI score (Mean ± SD): 0.481 ± 0.242
[5]; intragastric, 18th day
  DAI score (Mean ± SD): 0.333 ± 0.236
[5]; intragastric, 19th day
  DAI score (Mean ± SD): 0.259 ± 0.147
[5]; intragastric, 20th day
  DAI score (Mean ± SD): 0.222 ± 0.167
[6]; intracolonic
  Gln in intestinal mucosa (Mean ± SD): 124.06 ± 24.40 µmol/L
[6]; intragastric
  Gln in intestinal mucosa (Mean ± SD): 132.59 ± 41.74 µmol/L
[7]; intracolonic
  IL-10 serum content (Mean ± SD): 88.06 ± 10.47 pg/mL
[7]; intragastric
  IL-10 serum content (Mean ± SD): 88.56 ± 16.77 pg/mL
